From US20130303507A1 (Novartis AG, priority 2011, published 2013)
Where “and” joins values, the source holds several entries; their conditions need not be identical. Equal values may be shown once.

Target: T1, Cdk9/cyclinT1 (Homo sapiens, UniProt P50750)
Assay: Cdk9/cyclinT1 IMAP protocol (fluorescence polarization)
Settings: IC-50, CDK9; lower limit of assay 0.0005 micromolar

T1 sequence (P50750 whole entry): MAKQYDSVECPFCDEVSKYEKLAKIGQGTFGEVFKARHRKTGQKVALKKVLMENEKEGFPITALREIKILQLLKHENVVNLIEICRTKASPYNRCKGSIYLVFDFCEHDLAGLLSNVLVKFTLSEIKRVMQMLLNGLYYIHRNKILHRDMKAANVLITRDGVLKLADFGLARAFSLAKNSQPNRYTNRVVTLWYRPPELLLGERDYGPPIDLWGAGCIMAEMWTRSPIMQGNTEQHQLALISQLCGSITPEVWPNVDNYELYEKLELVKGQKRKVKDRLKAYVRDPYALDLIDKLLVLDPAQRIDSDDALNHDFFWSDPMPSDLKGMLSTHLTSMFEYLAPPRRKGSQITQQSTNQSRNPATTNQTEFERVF
T1 sequence (O60563 whole entry partner): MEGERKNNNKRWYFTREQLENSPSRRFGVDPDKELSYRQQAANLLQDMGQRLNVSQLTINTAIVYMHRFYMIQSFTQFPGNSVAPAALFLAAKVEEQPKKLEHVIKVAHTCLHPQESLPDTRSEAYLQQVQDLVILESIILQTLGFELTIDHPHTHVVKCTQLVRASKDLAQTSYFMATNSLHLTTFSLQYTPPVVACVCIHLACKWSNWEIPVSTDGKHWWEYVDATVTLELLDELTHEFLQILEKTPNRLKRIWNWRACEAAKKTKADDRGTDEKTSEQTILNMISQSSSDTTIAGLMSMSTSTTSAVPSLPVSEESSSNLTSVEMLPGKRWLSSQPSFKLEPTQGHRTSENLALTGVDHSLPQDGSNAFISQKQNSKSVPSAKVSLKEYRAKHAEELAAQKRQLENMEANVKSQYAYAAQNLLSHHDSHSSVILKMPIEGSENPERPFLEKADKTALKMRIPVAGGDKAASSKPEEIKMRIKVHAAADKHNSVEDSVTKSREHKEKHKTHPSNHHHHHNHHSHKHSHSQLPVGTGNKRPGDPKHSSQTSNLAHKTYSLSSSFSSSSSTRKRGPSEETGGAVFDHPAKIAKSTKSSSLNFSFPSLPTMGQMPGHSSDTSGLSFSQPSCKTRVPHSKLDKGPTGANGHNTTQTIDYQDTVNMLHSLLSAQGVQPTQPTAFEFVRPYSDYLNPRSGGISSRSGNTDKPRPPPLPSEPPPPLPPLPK

Row | SMILES | IC50
1 | C[C@@H]1COCCN1[C@H]1CC[C@H](Nc2cc(-c3cccc(NCC4(C#N)CCOCC4)n3)c(Cl)cn2)CC1 [Compound 503, 4-(((5′-chloro-2′-((trans-4-((R)-3-methylmorpholino)cyclohexyl)amino)-[2,4′-bipyridin]-6-yl)amino)methyl)tetrahydro-2H-pyran-4-carbonitrile] | 2.6 nM
2 | N#CC1(CNc2cccc(-c3cc(N[C@H]4CC[C@H](CNc5nc6ccccc6o5)CC4)ncc3Cl)n2)CCOCC1 [Compound 504, 4-(((2′-((trans-4-((benzo[d]oxazol-2-ylamino)methyl)cyclohexyl)amino)-5′-chloro-[2,4′-bipyridin]-6-yl)amino)methyl)tetrahydro-2H-pyran-4-carbonitrile] | 1 nM
3 | N#CC1(CNc2cccc(-c3cc(N[C@H]4CC[C@H](CNc5cc(Cl)ncn5)CC4)ncc3Cl)n2)CCOCC1 [Compound 505, 4-(((5′-chloro-2′-((trans-4-(((6-chloropyrimidin-4-yl)amino)methyl)cyclohexyl)amino)-[2,4′-bipyridin]-6-yl)amino)methyl)tetrahydro-2H-pyran-4-carbonitrile] | ≤ 0.5 nM
4 | COC[C@@H](C)N[C@H]1CC[C@H](Nc2cc(-c3nc(NCC4(C#N)CCOCC4)cnc3Cl)c(Cl)cn2)CC1 [Compound 506, 4-(((5-chloro-6-(5-chloro-2-((trans-4-(((R)-1-methoxypropan-2-yl)amino)cyclohexyl)amino)pyridin-4-yl)pyrazin-2-yl)amino)methyl)tetrahydro-2H-pyran-4-carbonitrile] | ≤ 0.5 nM
5 | COC[C@@H](C)N[C@H]1CC[C@H](Nc2cc(-c3cncc(NCC4(C#N)CCOCC4)n3)c(Cl)cn2)CC1 [Compound 507, 4-(((6-(5-chloro-2-((trans-4-(((R)-1-methoxypropan-2-yl)amino)cyclohexyl)amino)pyridin-4-yl)pyrazin-2-yl)amino)methyl)tetrahydro-2H-pyran-4-carbonitrile] | < 0.5 nM
6 | COCCN[C@H]1CC[C@H](Nc2cc(-c3nc(NCC4(C#N)CCOCC4)cnc3Cl)c(Cl)cn2)CC1 [Compound 508, 4-(((5-chloro-6-(5-chloro-2-((trans-4-((2-methoxyethyl)amino)cyclohexyl)amino)pyridin-4-yl)pyrazin-2-yl)amino)methyl)tetrahydro-2H-pyran-4-carbonitrile] | < 0.5 nM
7 | COC[C@@H](C)N[C@H]1CC[C@H](Nc2cc(-c3cncc(OCC4(C#N)CCOCC4)n3)c(Cl)cn2)CC1 [Compound 509, 4-(((6-(5-chloro-2-((trans-4-(((R)-1-methoxypropan-2-yl)amino)cyclohexyl)amino)pyridin-4-yl)pyrazin-2-yl)oxy)methyl)tetrahydro-2H-pyran-4-carbonitrile] | 1.1 nM
8 | COCCN[C@H]1CC[C@H](Nc2cc(-c3cncc(OCC4(C#N)CCOCC4)n3)c(Cl)cn2)CC1 [Compound 510, 4-(((6-(5-chloro-2-((trans-4-((2-methoxyethyl)amino)cyclohexyl)amino)pyridin-4-yl)pyrazin-2-yl)oxy)methyl)tetrahydro-2H-pyran-4-carbonitrile] | 1.3 nM
9 | N#CC1(COc2cncc(-c3cc(N[C@H]4CC[C@H](N)CC4)ncc3Cl)n2)CCOCC1 [Compound 511, 4-(((6-(2-((trans-4-aminocyclohexyl)amino)-5-chloropyridin-4-yl)pyrazin-2-yl)oxy)methyl)tetrahydro-2H-pyran-4-carbonitrile] | 0.6 nM
10 | N#CC1(CNc2cccc(-c3cc(NC4CNC4)ncc3Cl)n2)CCOCC1 [Example 401] | 81 nM
11 | N#CC1(CNc2cccc(-c3cc(NC4CCNCC4)ncc3Cl)n2)CCOCC1 [Example 402] | 4.8 nM
12 | N#CC1(CNc2cccc(-c3cc(N[C@@H]4CC[C@@H](N(CC5CCCO5)CC5CCCO5)C4)ncc3Cl)n2)CCOCC1 (stereo partly drawn) [Example 407] | 5.5 nM

Target: T1, Cdk9/cyclinT1
Assay: Cdk9/cyclinT1 Alpha Screen protocol
Assay type: biochemical
Set-up: Full length wild type Cdk9/cyclin T1 is purchased from Invitrogen; purchased Invitrogen PV4131
Settings: TFA salt; individual determinations; read-out: CDK9_cyclinT1_AS2_IC50
Experimental: Cdk9/cyclinT1 Alpha Screen Protocol
Full length wild type Cdk9/cyclin T1 is purchased from Invitrogen, cat#PV4131. […] The cdk7tide peptide substrate, biotin-[…] -OH, is a custom synthesis purchased from the Tufts University Core Facility. The final concentration of cdk7tide peptide substrate is 200 nM. […] Phospho-Rpb1 CTD (ser2/5) substrate antibody is purchased from Cell Signaling Technology. The final concentration of antibody is 0.67 ug/ml. The Alpha Screen Protein A detection kit containing donor and acceptor beads is purchased from PerkinElmer Life Sciences. The final concentration of both donor and acceptor beads is 15 ug/ml. Alpha Screen is used for detection. […] The biotinylated-cdk7tide peptide substrate is bound to the streptavidin coated donor bead. The antibody is bound to the protein A coated acceptor bead. The antibody will bind to the phosphorylated form of the biotinylated-cdk7tide peptide substrate, bringing the donor and acceptor beads into close proximity. Laser irradiation of the donor bead at 680 nm generates a flow of short-lived singlet oxygen molecules. When the donor and acceptor beads are in close proximity, the reactive oxygen generated by the irradiation of the donor beads initiates a luminescence/fluorescence cascade in the acceptor beads. This process leads to a highly amplified signal with output in the 530-620 nm range. Assays are carried out in 50 mM Hepes, pH=7.5, 10 mM MgCl2, 0.1% Bovine Serum Albumin, 0.01% Tween-20, 1 mM Dithiothreitol, 2.5% Dimethyl Sulfoxide. Stop and detection steps are combined using 50 mM Hepes, pH=7.5, 18 mM EDTA, 0.1% Bovine Serum Albumin, 0.01% Tween-20.

Row | SMILES | IC50
13 | CO[C@H]1CCN([C@H]2CC[C@@H](Nc3cc(-c4cccc(NCC5(C#N)CCOCC5)n4)c(Cl)cn3)CC2)C1 [Compound 513] | 26.1 nM
14 | CO[C@H]1CCN([C@H]2CC[C@H](Nc3cc(-c4cccc(NCC5(C#N)CCOCC5)n4)c(Cl)cn3)CC2)C1 [Compound 514] | 0.826 nM
15 | CC(C)(C)OCCN[C@H]1CC[C@H](Nc2cc(-c3cccc(NCC4(C#N)CCOCC4)n3)c(Cl)cn2)CC1 [Compound 515] | 2.19 nM
16 | CC(C)(C)OCCN(CCOC(C)(C)C)[C@H]1CC[C@H](Nc2cc(-c3cccc(NCC4(C#N)CCOCC4)n3)c(Cl)cn2)CC1 [Compound 518] | 8.57 nM
17 | COC[C@@H](C)N[C@H]1CC[C@H](Nc2cc(-c3cccc(NCC4(C#N)CCOCC4)n3)c(F)cn2)CC1 [Compound 519] | 0.252 nM and 0.218 nM and 0.232 nM and 0.38 nM
18 | COC[C@H](C)N[C@H]1CC[C@H](Nc2cc(-c3cccc(NCC4(C#N)CCOCC4)n3)c(F)cn2)CC1 [Compound 520] | 0.458 nM and 0.413 nM
19 | N#CC1(CNc2cccc(-c3cc(N[C@H]4CC[C@H](N[C@H]5CCCC[C@@H]5O)CC4)ncc3Cl)n2)CCOCC1 [Compound 523] | 0.33 nM
20 | N#CC1(CNc2cccc(-c3cc(N[C@H]4CC[C@H](N[C@@H]5CCCC[C@H]5O)CC4)ncc3Cl)n2)CCOCC1 [Compound 525] | 0.542 nM
21 | COC[C@@H](C)NC[C@H]1CC[C@H](Nc2cc(-c3cccc(NCC4(C#N)CCOCC4)n3)c(Cl)cn2)CC1 [Compound 532] | 0.703 nM
22 | COC[C@H](C)NC[C@H]1CC[C@H](Nc2cc(-c3cccc(NCC4(C#N)CCOCC4)n3)c(Cl)cn2)CC1 [Compound 533] | 0.867 nM
23 | N#CC1(COc2cncc(-c3cc(N[C@H]4CC[C@H](N)CC4)ncc3F)n2)CCOCC1 [Compound 534] | 0.471 nM
24 | N#CC1(CNc2cccc(-c3cc(N[C@H]4CC[C@H](CN5CCOCC5)CC4)ncc3Cl)n2)CCOCC1 [Compound 536] | 1.87 nM
25 | N#CC1(CNc2cccc(-c3cc(N[C@H]4CC[C@@H](N5CCCOCC5)CC4)ncc3Cl)n2)CCOCC1 [Compound 538] | 19.8 nM and 20.9 nM
26 | C[C@H](N[C@H]1CC[C@H](Nc2cc(-c3cccc(NCC4(C#N)CCOCC4)n3)c(Cl)cn2)CC1)[C@@H](C)O [Compound 541] | 0.303 nM
27 | N#CC1(CNc2cccc(-c3cc(N[C@H]4CC[C@H](NC[C@H](O)CF)CC4)ncc3Cl)n2)CCOCC1 [Compound 542] | 0.168 nM
28 | C[C@H](O)[C@@H](C)N[C@H]1CC[C@H](Nc2cc(-c3cccc(NCC4(C#N)CCOCC4)n3)c(Cl)cn2)CC1 [Compound 543] | 0.229 nM

Same assay, conditions: neutral species; individual determinations; read-out: CDK9_cyclinT1_AS2_IC50

Row | SMILES | IC50
29 | COC[C@@H](C)N[C@H]1CC[C@H](Nc2cc(-c3cnc(Cl)c(NCC4(C#N)CCOCC4)n3)c(Cl)cn2)CC1 [Compound 512] | 254 nM
30 | CO[C@H]1CCN([C@H]2CC[C@@H](Nc3cc(-c4cccc(NCC5(C#N)CCOCC5)n4)c(Cl)cn3)CC2)C1 [Compound 513] | 5.39 nM
31 | CO[C@H]1CCN([C@H]2CC[C@H](Nc3cc(-c4cccc(NCC5(C#N)CCOCC5)n4)c(Cl)cn3)CC2)C1 [Compound 514] | 0.553 nM
32 | CC(C)(C)OCCN[C@H]1CC[C@H](Nc2cc(-c3cccc(NCC4(C#N)CCOCC4)n3)c(Cl)cn2)CC1 [Compound 515] | 0.217 nM
33 | CO[C@H]1CCN([C@H]2CC[C@H](Nc3cc(-c4cccc(NCC5(C#N)CCOCC5)n4)c(F)cn3)CC2)C1 [Compound 516] | 0.835 nM
34 | CO[C@H]1CCN([C@H]2CC[C@@H](Nc3cc(-c4cccc(NCC5(C#N)CCOCC5)n4)c(F)cn3)CC2)C1 [Compound 517] | 8.61 nM
35 | COC[C@@H](C)N[C@H]1CC[C@H](Nc2cc(-c3cccc(NCC4(C#N)CCOCC4)n3)c(F)cn2)CC1 [Compound 519] | 0.235 nM
36 | CC(C)(O)CN[C@H]1CC[C@H](Nc2cc(-c3cccc(NCC4(C#N)CCOCC4)n3)c(Cl)cn2)CC1 [Compound 521] | 0.475 nM
37 | CC(C)(O)CN[C@H]1CC[C@H](Nc2cc(-c3cccc(NCC4(C#N)CCOCC4)n3)c(F)cn2)CC1 [Compound 522] | 0.421 nM
38 | CC(C)(O)CN[C@H]1CC[C@H](Nc2cc(-c3cncc(OCC4(C#N)CCOCC4)n3)c(Cl)cn2)CC1 [Compound 524] | 0.85 nM
39 | COCC(C)NC[C@H]1CC[C@H](Nc2cc(-c3cccc(NCC4(C#N)CCOCC4)n3)c(Cl)cn2)CC1 (stereo partly drawn) [Compound 526] | 1.19 nM
40 | CC(C)(C)OCCN[C@H]1CC[C@H](Nc2cc(-c3cccc(NCC4(C#N)CCOCC4)n3)c(F)cn2)CC1 [Compound 527] | 0.594 nM
41 | N#CC1(CNc2cccc(-c3cc(N[C@H]4CC[C@H](N5CCn6c(nnc6C(F)(F)F)C5)CC4)ncc3Cl)n2)CCOCC1 [Compound 528] | 7.73 nM
42 | COC(C)(C)CN[C@H]1CC[C@H](Nc2cc(-c3cccc(NCC4(C#N)CCOCC4)n3)c(Cl)cn2)CC1 [Compound 529] | 0.281 nM
43 | N#CC1(CNc2cccc(-c3cc(N[C@H]4CC[C@@H](N5CCn6c(nnc6C(F)(F)F)C5)CC4)ncc3Cl)n2)CCOCC1 [Compound 530] | 36.9 nM
44 | C[C@H](N[C@H]1CC[C@H](Nc2cc(-c3cccc(NCC4(C#N)CCOCC4)n3)c(Cl)cn2)CC1)[C@@H](C)O [Compound 531] | 0.471 nM
45 | N#CC1(CNc2cccc(-c3cc(N[C@H]4CC[C@H](NCC(O)CF)CC4)ncc3Cl)n2)CCOCC1 (stereo partly drawn) [Compound 535] | 0.398 nM
46 | N#CC1(CNc2cccc(-c3cc(N[C@H]4CC[C@H](CN5CCOCC5)CC4)ncc3Cl)n2)CCOCC1 [Compound 536] | 2.11 nM
47 | CC(O)(CN[C@H]1CC[C@H](Nc2cc(-c3cccc(NCC4(C#N)CCOCC4)n3)c(Cl)cn2)CC1)C(F)(F)F (stereo partly drawn) [Compound 539] | 0.537 nM and 0.466 nM
48 | COCCNC[C@H]1CC[C@H](Nc2cc(-c3cccc(NCC4(C#N)CCOCC4)n3)c(Cl)cn2)CC1 [Compound 540] | 0.596 nM and 0.536 nM
